For this test, the system named is single asparagus cells. The test is described as follows: bioassay of the plant growth factors: colony formation frequency of incubated single asparagus cells. In kind it is cell-based, Asparagus officinalis L. The note with it: peptide made by synthesizer and enzymatic sulfation. As to the method:
Single asparagus cells, as obtained according to the method of Example 4, were implanted in the media, as prepared by the method of Example 5, and incubated with the present plant growth factor in the media. The influence of the plant growth factor on the proliferation of the incubated asparagus cells was determined by measuring the change in the colony formation frequency in each medium. Cells were incubated in a 24-well microtiter plate (IWAKI 3820-024). To each well of the microtiter were added 250 μl of a suspension of single asparagus cells as prepared at a cell density of 2-fold the intended final cell density, 125 μl of the liquid medium having a concentration of 4-fold the intended final concentration, and 125 μl of sterilized distilled water or 125 μl of CM as obtained in Example 6, sterilized through filtration (ADVANTEC DISMIC-13 cp, 0.20 μm) and diluted just before use, and fully stirred. Then, the plates were sealed with vinyl tape in order to prevent vaporization, in which the cells were incubated in the dark at 28° C. with shaking at 120 rpm (TAITEC BR-300L). […] On the basis of the data thus obtained for 3 wells or more, the colony formation frequency (C) and the cell viability (L) were calculated according to the following equations. […] The colony formation frequency for the asparagus cells at each CM concentration was determined. […]

[ ]: non-standard residue; d: D form. sY = N[C@@H](Cc1ccc(OS(=O)(=O)O)cc1)C(=O)O

For the substance H-[sY]I[sY]TQ-OH [compound (I-1)], the “biological activity of the synthesized peptide compared with isolated compound (I-1)” value is “exhibited the biological activity at the same concentrations”.

The values are drawn from patent publication US6921806B2, “Plant growth factor” (Kyowa Hakko Kogyo Co. Ltd., priority 1995, dated 2005).
